In publication PMC3679022, “A Cancer Specific Cell-Penetrating Peptide, BR2, for the Efficient Delivery of an scFv into Cancer Cells” (PLoS ONE, 2013):

What was measured:
[1] = system: cancer cells (HeLa, HCT116 and B16/F10); format: cell-based, human, mouse; settings: flow cytometry
Description: To evaluate the internalization of FITC-labeled peptides, HeLa cells were seeded onto 12-well plates at a density of 2×10^5 cells per well and incubated for 24 h. FITC-labeled peptides, at various concentrations ranging from […], were then incubated with the cells for 30 min at 37°C. To compare the cellular uptake of peptides, cancer and normal cells were treated with FITC-labeled peptides (each, 10 µM) and incubated for 30 min at 37°C. Following the incubation, cells were washed three times with ice-cold PBS to remove excess extracellular complexes. Next, the cells were treated with trypsin (1 mg/ml) for 10 min to remove any remaining peptides bound to the cell surface. After trypsinization, the cells were collected by centrifugation (1,000×g for 5 min), resuspended with 500 µl ice-cold 2% FBS/PBS containing propidium iodide (PI), and then immediately analyzed (10,000 events/sample) by fluorescence activated cell sorting (FACS).
For all of these experimental conditions, flow cytometry analyses were performed with live cells using a Becton Dickinson FACSCalibur flow cytometer (BD Biosciences, San Diego, CA). In each case, the fluorescence of 10,000 viable cells was acquired. Viable cells were gated based on a sideward and forward scatter. […] The statistical significance was evaluated by Student’s t-test at a 95% confidence interval. […]

[2] = system: HCT116 cells (K-ras mutated cells); test: Cell proliferation assay (MTT); format: cell-based, human; parameters: dose or concentration left out as unconfirmed; settings: same concentrations as fusion proteins (Fig. S4:), 24 h
Description: To assess the anti-proliferative activity of peptides and anti-Ras scFv fusion proteins, HCT116 cells (K-ras mutated cells) were seeded in 96-well plates at a density of 2×10^4 cells/well in 100 µL of DMEM supplemented with 10% FBS and cultured for 24 h at 37°C. […] Cell viability was measured with the 3-(4,5-dimethylthiazol-2-yl)-2,5-diphenyl tetrazolium bromide (MTT) assay using the CellTiter 96® Non-radioactive Cell Proliferation assay kit (Promega, Madison, WI) according to the manufacturer’s instructions. The absorbance of the solution was measured at 570 nm using a Microplate Reader (Bio-Rad). Cell viability was expressed as the percentage of viable cells treated with scFv or peptide-scFv fusion proteins compared to the PBS-treated control (100%). All experiments were done in triplicate.
Figure 4 Intracellular uptake of peptides and anti-Ras scFv fusion proteins and their anti-proliferative activity. […] (B) Protein uptake was analyzed by Western blotting of fractionated lysates from HCT116 cells treated with PBS, anti-Ras scFv, BR2- or Tat-scFv fusion protein (each, 2 µM) at 37°C for 2 h. […] Cell proliferation was determined using the MTT assay. […]
HCT116 cells were seeded in 96-well plates at a density of 2×10^4 cells/well in 100 μl of DMEM supplemented with 10% FBS and cultured for 24 h at 37°C. […] The absorbance of the solution was measured at 570 nm using a Microplate Reader (Bio-Rad). […]

[3] = system: cancer cell lines (HeLa, HCT116 and B16/F10); test: In vitro cytotoxicity assay (LDH leakage), cancer cell lines; settings: 100 µM peptide, 24 h, 37°C; 0.2% Triton X-100 = 100%; n = 3
Description: The cytotoxicity of peptides to mammalian cells was investigated by assessing the release of lactate dehydrogenase (LDH) from cancer and normal cells. The amount of LDH released from damaged cells into the supernatant was measured using the Cytotoxicity Detection Kit (Roche Applied Science, Germany) according to the manufacturer’s instructions. In brief, cells were plated onto 96-well microplates (1×10^4 cells per well) in complete DMEM supplemented with 10% FBS and incubated overnight at 37°C to allow for attachment and spreading of cells. After 24 h of incubation, cells were treated with various concentrations of peptides (0–100 µM) and incubated for another 24 h at 37°C. The extracellular medium from each well was transferred to a new microplate and incubated for 10 min with 100 µl/well reaction mixture, followed by a stop solution. Absorbance was measured at 490 nm by using an ELISA plate reader. LDH release from cells lysed with 0.2% Triton X-100 in PBS was defined as 100% leakage and LDH release from untreated cells as 0% leakage.
(B,C) In vitro cytotoxicity of peptides. (B) Membrane disturbance was measured by lactate dehydrogenase (LDH) leakage from the indicated cell lines 24 h after peptide treatment. LDH leakage from cells seeded in a 96-well plate at 10,000 cells/well was measured after exposure to 1, 2, 5, 10, 20, 50 or 100 µM peptides for 24 h. […]

Question: RAGLQFPVGRLLRRLLR [BR2] was tested. Which “transduction efficiency into cancer cells versus normal cells” value [1] did it give?
Answer: about 4 fold

Question: And the “anti-proliferative activity of peptide alone” value [2]?
Answer: did not show any detectable inhibitions

Question: What about the LDH leakage [3] of the same sequence?
Answer: 40–60%
